Laboratory results published in ChEMBL document CHEMBL1909593, “Identification of novel plasmin inhibitors possessing nitrile moiety as warhead” (Bioorg Med Chem Lett, 2011).

Key:
Plasminogen [1] = target: T1, Plasminogen (Homo sapiens, UniProt P00747); assay: Inhibition of plasmin
[2] = target: Urokinase-type plasminogen activator (Homo sapiens) (UniProt P00749); assay: Inhibition of urokinase at 500 uM
Plasma kallikrein [3] = target: T2, Plasma kallikrein (Homo sapiens, UniProt P03952); assay: Inhibition of plasma kallikrein
Plasma kallikrein [4] = target: T2, Plasma kallikrein; assay: Inhibition of plasma kallikrein at 1000 uM
[5] = target: Urokinase-type plasminogen activator (Homo sapiens) (UniProt P00749); assay: Inhibition of urokinase at 1000 uM
[6] = target: Urokinase-type plasminogen activator (Homo sapiens) (UniProt P00749); assay: Inhibition of urokinase at 200 uM
Plasma kallikrein [7] = target: T2, Plasma kallikrein; assay: Inhibition of plasma kallikrein at 250 uM
Plasminogen [8] = target: T1, Plasminogen; assay: Inhibition of plasmin at 250 uM
[9] = target: Urokinase-type plasminogen activator (Homo sapiens) (UniProt P00749); assay: Inhibition of urokinase at 400 uM

T1 sequence (P00747 97-580 limits assumed): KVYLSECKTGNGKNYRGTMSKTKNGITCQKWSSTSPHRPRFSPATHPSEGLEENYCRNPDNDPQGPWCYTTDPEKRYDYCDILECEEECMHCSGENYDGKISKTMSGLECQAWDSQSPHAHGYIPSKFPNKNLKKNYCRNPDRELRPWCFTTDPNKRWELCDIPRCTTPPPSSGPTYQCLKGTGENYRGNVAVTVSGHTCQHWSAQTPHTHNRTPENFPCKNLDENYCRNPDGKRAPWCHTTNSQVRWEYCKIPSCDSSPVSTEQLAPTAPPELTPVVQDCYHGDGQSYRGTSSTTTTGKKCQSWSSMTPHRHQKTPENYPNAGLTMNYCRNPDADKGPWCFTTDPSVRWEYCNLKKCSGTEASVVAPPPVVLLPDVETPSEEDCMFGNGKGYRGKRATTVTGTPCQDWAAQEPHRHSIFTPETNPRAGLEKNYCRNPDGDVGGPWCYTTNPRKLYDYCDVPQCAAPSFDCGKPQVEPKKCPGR
T1 sequence (P00747 581-810 limits assumed): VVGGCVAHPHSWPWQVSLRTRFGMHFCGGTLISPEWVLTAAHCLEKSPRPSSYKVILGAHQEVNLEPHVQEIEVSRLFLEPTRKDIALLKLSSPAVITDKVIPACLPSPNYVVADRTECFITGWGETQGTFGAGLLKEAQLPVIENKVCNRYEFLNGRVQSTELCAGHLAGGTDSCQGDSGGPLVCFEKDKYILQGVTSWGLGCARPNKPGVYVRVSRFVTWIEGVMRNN
T2 sequence (P03952 20-390 limits assumed): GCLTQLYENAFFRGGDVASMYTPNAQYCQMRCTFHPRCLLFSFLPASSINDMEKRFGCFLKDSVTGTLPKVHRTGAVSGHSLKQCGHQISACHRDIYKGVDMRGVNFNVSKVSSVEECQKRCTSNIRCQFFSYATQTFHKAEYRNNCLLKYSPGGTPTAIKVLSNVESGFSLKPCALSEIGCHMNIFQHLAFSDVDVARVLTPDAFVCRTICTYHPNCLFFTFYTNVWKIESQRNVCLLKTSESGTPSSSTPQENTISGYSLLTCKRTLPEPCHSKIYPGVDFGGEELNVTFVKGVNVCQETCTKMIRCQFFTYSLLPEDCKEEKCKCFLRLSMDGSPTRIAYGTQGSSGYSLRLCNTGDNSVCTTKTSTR
T2 sequence (P03952 391-638 limits assumed): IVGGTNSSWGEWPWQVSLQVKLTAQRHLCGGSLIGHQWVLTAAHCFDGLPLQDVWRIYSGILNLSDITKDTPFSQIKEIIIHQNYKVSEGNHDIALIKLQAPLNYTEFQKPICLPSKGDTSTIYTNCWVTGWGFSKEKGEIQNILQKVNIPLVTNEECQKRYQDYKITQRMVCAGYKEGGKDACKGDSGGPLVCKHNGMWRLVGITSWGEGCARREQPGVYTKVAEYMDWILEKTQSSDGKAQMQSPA

SMILES	IC50 (Plasminogen [1])	IC50 (Plasma kallikrein [3])	inhibition (Plasma kallikrein [4])	inhibition [5]	inhibition [6]	also measured
N#C[C@H](CCCCN)NC(=O)c1ccc(OCc2ccncc2)c(NC(=O)Cc2ccc3ccccc3c2)c1	220 µM	380 µM				inhibition [2]: 20%
CC[C@@H](C)[C@@H](N)C(=O)N[C@@H](Cc1ccccc1)C(=O)N[C@@H](CCCCN)C(N)=O	290 µM		0%	0%		
CC[C@@H](C)[C@@H](N)C(=O)N[C@@H](Cc1ccccc1)C(=O)N[C@H](C#N)CCCCN	78 µM		38%	15%		
N#C[C@H](CCCCN)NC(=O)c1ccc(OCc2ccncc2)cc1	240 µM		45%	16%		

Now from value to molecule, other results behind:

IC50 (Plasminogen [1])	IC50 (Plasma kallikrein [3])	inhibition (Plasma kallikrein [4])	inhibition [5]	inhibition [6]	SMILES	also measured
590 µM		11%	19%		N#C[C@H](CCCCN)NC(=O)c1ccc(OCc2ccncc2)c(NC(=O)Cc2ccc(F)cc2)c1	
570 µM	680 µM				N#C[C@H](CCCCN)NC(=O)c1ccc(OCc2ccncc2)c(NC(=O)Cc2cccc3ccccc23)c1	inhibition [2]: 16%
220 µM	910 µM			0%	CC(C)(C)OC(=O)n1cc(CCC(=O)Nc2cc(C(=O)N[C@H](C#N)CCCCN)ccc2OCc2ccncc2)c2ccccc21	
370 µM		44%		0%	N#C[C@H](CCCCN)NC(=O)c1ccc(OCc2ccncc2)c(NC(=O)CCc2c[nH]c3ccccc23)c1	
				0%	COc1ccc(C(=O)N[C@H](C#N)CCCCN)cc1NC(=O)CCc1cn(Cc2ccc(F)cc2)c2ccccc12	inhibition (Plasma kallikrein [7]): 22%; inhibition (Plasminogen [8]): 0%
140 µM		0%			N#C[C@H](CCCCN)NC(=O)c1ccc(OCc2ccncc2)c(NC(=O)CCc2cn(Cc3ccc(F)cc3)c3ccccc23)c1	inhibition [9]: 0%
